Source: patent US9675592B2, “Methods and compositions for bacteria infections” (priority 2013, dated 2017)

Assays:
[1] = target: cytoplasmic domain of VraS (VraS-C) (Staphylococcus aureus, UniProt Q99SZ7); assay: biochemical; format: binding; conditions: for Kd: NB = No Binding, read-out: KD VraS
[2] = target: VraR (Staphylococcus aureus, UniProt Q7A4R9); assay: biochemical; format: binding; conditions: His-tagged VraR; NB = No Binding
[3] = target: PurC (unrelated protein, control) (Bacillus anthracis, UniProt Q81ZH5); format: binding; conditions: read-out: KD PurC (control)
[4] = system: test strain 923 pPvra-lux; assay: Secondary screen / synergy confirmation of Top 40, relative growth with oxacillin; format: cell-based, Staphylococcus aureus; conditions: Top 40 library, compound at maximum non-GI conc
Description: In the secondary screen each microtiter plate contained either cells in TSB alone (16 replicates), cells with oxacillin (2 μg/mL, 31 replicates), or cells with test compound and oxacillin (2 μg/mL, 49 wells). Each compound was assayed in four separate biological replicates.
Synergy Confirmation of “Top 40”. […]

[5] = system: vraSR promoter (Pvra-lux reporter in strain 923); format: cell-based, Staphylococcus aureus
Description: In the secondary screen each microtiter plate contained either cells in TSB alone (16 replicates), cells with oxacillin (2 μg/mL, 31 replicates), or cells with test compound and oxacillin (2 μg/mL, 49 wells). Each compound was assayed in four separate biological replicates. […]

[6] = system: test strain (923 pPvra-lux); assay: Growth inhibition by compound alone (maximum non-growth-inhibitory concentration); format: cell-based, Staphylococcus aureus; conditions: compound alone; maximum concentration where it did NOT inhibit growth
[7] = system: multiple strains of MRSA; assay: MICs (minimal inhibitory concentrations) vs multiple strains of MRSA; format: cell-based, Staphylococcus aureus; conditions: compound at 4 mg/L
[8] = system: test strain 923 pPvra-lux (USA300 MRSA); assay: Primary screen, relative growth in presence of oxacillin; conditions: compound 10 μM with oxacillin 2 μg/mL, absorbance 24 h, <0.50 = dead cells = hit
[9] = system: vraSR promoter (Pvra-lux reporter in strain 923); assay: Primary screen, relative luminescence (vraSR expression); conditions: primary screen, compound 10 μM with oxacillin 2 μg/mL; <0.50 = vraSR repressed = hit

Sequence of VraR (Q7A4R9 whole entry): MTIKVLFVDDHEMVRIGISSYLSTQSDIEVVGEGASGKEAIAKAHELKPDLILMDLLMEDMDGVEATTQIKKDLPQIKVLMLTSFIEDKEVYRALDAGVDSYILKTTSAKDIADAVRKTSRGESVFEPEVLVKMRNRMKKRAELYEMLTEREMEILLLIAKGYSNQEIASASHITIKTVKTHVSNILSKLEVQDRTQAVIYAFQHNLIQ
Sequence of cytoplasmic domain of VraS (VraS-C) (Q99SZ7 70-347): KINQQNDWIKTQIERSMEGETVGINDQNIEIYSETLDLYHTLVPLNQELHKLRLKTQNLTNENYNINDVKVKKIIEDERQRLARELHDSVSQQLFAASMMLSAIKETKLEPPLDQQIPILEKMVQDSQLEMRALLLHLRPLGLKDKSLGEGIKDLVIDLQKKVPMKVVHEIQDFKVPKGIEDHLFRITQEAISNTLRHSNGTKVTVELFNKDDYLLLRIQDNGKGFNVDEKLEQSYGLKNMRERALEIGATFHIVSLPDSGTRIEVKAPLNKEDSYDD
Sequence of PurC (unrelated protein, control) (Q81ZH5 whole entry, looked up): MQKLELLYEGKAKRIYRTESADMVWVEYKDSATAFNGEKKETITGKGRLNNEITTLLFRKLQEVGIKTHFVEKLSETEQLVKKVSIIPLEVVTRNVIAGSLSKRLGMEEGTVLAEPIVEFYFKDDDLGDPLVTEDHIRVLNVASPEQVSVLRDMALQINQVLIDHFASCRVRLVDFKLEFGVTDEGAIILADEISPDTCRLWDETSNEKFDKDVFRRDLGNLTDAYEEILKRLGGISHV

O=C(Nc1nnc(-c2ccc(F)cc2)o1)c1cccc(Br)c1 [F1374-0119] was tested, and the Kd ([1]; new run with His-tagged VraS) was over 100 µM, the Kd [2] was over 100 µM and the Kd [3] was over 100 µM.

For O=C(Nc1nnc(-c2ccccc2Cl)o1)c1cccc(Oc2ccccc2)c1 [F1374-0081], the Kd ([1]; new run with His-tagged VraS) was over 100 µM, the Kd [2] was over 100 µM and the Kd [3] was over 100 µM.

With Cc1cc2c(C(C)C)c(O)c(O)c(C=O)c2c(O)c1-c1c(C)cc2c(C(C)C)c(O)c(O)c(C=O)c2c1O [Gos, Gossypol, reference compound] the Kd ([1]; new run with His-tagged VraS) was over 100 µM and the Kd [2] was over 100 µM.

With O=C(Nc1nnc(-c2ccccc2Cl)o1)c1nc2ccccc2s1 [F1374-0033] the “binding to VraS-C” value ([1]; SPR) was “bound”, the “RUmax VraS” value ([1]; new run with His-tagged VraS) was 64.3 ± 5.4 and the Kd ([1]; new run with His-tagged VraS) was 19.6 ± 4.4 µM. For the same compound, the Kd [2] was over 100 µM and the Kd [3] was over 100 µM.

Cc1ccc(C)c(-c2nnc(NC(=O)c3ccccc3F)o2)c1 [F2518-0382] gave a Kd ([1]; new run with His-tagged VraS) of over 100 µM, a Kd [2] of over 100 µM and a Kd [3] of over 100 µM.

Compound O=C(Nc1nnc(-c2ccc(Br)cc2)o1)c1cccc(C(F)(F)F)c1 [F2518-0477] has a Kd ([1]; new run with His-tagged VraS) of over 100 µM, a Kd [2] of over 100 µM and a Kd [3] of over 100 µM.

In the case of O=C(Nc1nnc(-c2ccc3c(c2)CCCC3)o1)c1cccc(C(F)(F)F)c1 [F0608-0575], the Kd ([1]; new run with His-tagged VraS) is reported as over 100 µM, the Kd [2] is reported as over 100 µM and the Kd [3] is reported as over 100 µM.

For CS(=O)(=O)c1ccc(-c2nnc(NC(=O)c3ccc(Cl)s3)o2)cc1 [F2645-0790], the Kd ([1]; new run with His-tagged VraS) was over 100 µM, the Kd [2] was over 100 µM and the Kd [3] was over 100 µM.

Compound O=C(Nc1nnc(-c2ccc(F)cc2)o1)c1nc2ccccc2s1 [F1374-0138] has a Kd ([1]; new run with His-tagged VraS) of over 100 µM, a Kd [2] of over 100 µM and a Kd [3] of over 100 µM.

In the case of O=C(Nc1nnc(-c2ccc(Br)cc2)o1)c1sc2ccccc2c1Cl [F2518-0484], the Kd ([1]; new run with His-tagged VraS) is reported as over 100 µM, the Kd [2] is reported as over 100 µM and the Kd [3] is reported as over 100 µM.

CC(C)(C)c1csc(NC(=O)c2cccc(NS(=O)(=O)c3ccc(F)cc3)c2)n1 [F2619-0556] was tested, and the “RG Ox avg” value [4] was 0.01, the “RL Ox avg” value ([5]; Top 40 library, with oxacillin, compound at maximum non-GI conc) was 0.28 and the vraSR repressing synergist ([5]; overall class from syn and rep) was 1. confirmed. For the same compound, the “maximum non-GI conc” value [6] was 400 µg/mL, the “Ox MIC in presence of compound” value ([7]; isolate 923, SCCmec IV, ST 8) was under 0.25 µg/mL and the “Ox MIC in presence of compound” value ([7]; isolate 1176, SCCmec II, ST 231) was under 0.5 µg/mL. The “Ox MIC in presence of compound” value ([7]; isolate 2169, SCCmec IV, ST 72) was under 0.25 µg/mL, the “Ox MIC in presence of compound” value ([7]; isolate 8004-01, SCCmec III, ST 239) was under 4 µg/mL and the “Ox MIC in presence of compound” value ([7]; isolate 8010-01, SCCmec IV, ST 8) was under 0.25 µg/mL. The “Ox MIC in presence of compound” value ([7]; isolate 8227-01, SCCmec IV, ST 87) was under 0.06 µg/mL, the “Ox MIC in presence of compound” value ([7]; isolate 11095, SCCmec II, ST 105) was 128 µg/mL and the “Ox MIC in presence of compound” value ([7]; isolate 13113, SCCmec II, ST 5) was under 0.13 µg/mL. The “Ox MIC in presence of compound” value ([7]; isolate 13354, SCCmec IV, ST 5) was under 0.13 µg/mL, the “Ox MIC in presence of compound” value ([7]; isolate 14315, SCCmec IV, ST 1) was under 0.5 µg/mL and the “Ox MIC in presence of compound” value ([7]; isolate Q2461, SCCmec VT, ST 59) was 1 µg/mL. The “RG avg (relative growth)” value [8] was 0.25 and the “RL avg (relative luminescence)” value [9] was 0.52.
